Assay results: patent US7709701B2, “Genetic manipulation of condensed tannins” (The Samuel Roberts Noble Foundation, priority 2004, dated 2010)

Assays:
[1] = target: AtBAN (Arabidopsis thaliana BAN) protein (Arabidopsis thaliana, UniProt Q9SEV0); assay type: biochemical; conditions: for Products formed on incubation with AtBAN protein extract: NADPH as coenzyme, 4-month old frozen protein extracts, HPLC
[2] = system: MtBAN (Medicago truncatula BAN homolog) protein; experiment: Anthocyanidin reductase activity assay with recombinant MtBAN protein extract (HPLC of products); assay type: biochemical; conditions: for Products formed on incubation with MtBAN protein extract: NADPH, 100 mM Tris-HCl pH 7.0, 30° C., 30 min, HPLC
anthocyanidin reductase [3] = target: T1, anthocyanidin reductase (Vitis vinifera, UniProt Q5FB34); experiment: Anthocyanidin reductase assay with desalted crude enzyme from grape fruit skin; assay type: biochemical; conditions: 1 mM NADPH, 100 μM cyanidin, 30° C., 30 min
T1 construct: 100 μM cyanidin and 50-25 μg desalted crude enzyme; from tissue; host or cells: skin of mature grape fruit
Experimental: (§1) Lotus corniculatus, Desmodium uncinatum and Barley cv. Morex were grown in a greenhouse. Young leaves from L. corniculatus, unexpanded leaves, and young pods as well as open flowers and flower buds from D. uncinatum, and young grains from Barley were collected. Seed testas of barley grains were excised and pooled together for enzyme extraction. Mature grape fruit stored at −80° C. was treated in pH 7 100 mM Tris.HCl buffer for 30 seconds for isolating the skin for enzyme extraction.
(§2) A fresh one-gram leaf sample of L. corniculatus, one-gram testa from barley, and 9 grams of grape fruit skin, as well as two grams of flowers, 3 grams of young pods and 3 grams of young unexpanded leaves from Desmodium uncinatum, were independently ground into fine powders in liquid nitrogen. The follow buffer systems were used for enzyme extraction. Extraction buffer 1: pH 7 100 mM Tris.HCl, 10% glycerol and 2 mM 1,4-dithiothreitol; Extraction buffer 2: pH 8 50 mM phosphate buffer, 10% glycerol, 1.5% polyethyleneglycol 4000 (PEG-4000), 2 mM pH 8.0 Na-EDTA, 25 mM sodium ascorbate, 20 mM β-mecaptoenthanol, and 5 mM 1,4-dithiothreitol; Extraction buffer 3: pH 8 100 mM Tris.HCl, 10% glycerol 1.5% polyethyleneglycerol 4000 (PEG-4000), 2 mM pH 8.0 Na-EDTA, 25 mM sodium ascorbate, 80 mM β-mecaptoenthanol, and 5 mM 1,4-dithiothreitol. […]

anthocyanidin reductase [4] = experiment: Anthocyanidin reductase assay with desalted crude enzyme from Lotus corniculatus leaves; assay type: biochemical; conditions: 1 mM NADPH, 100 μM cyanidin, 30° C., 30 min
Experimental: as §1, §2

anthocyanidin reductase [5] = experiment: Anthocyanidin reductase assay with desalted crude enzyme from Desmodium uncinatum flowers, leaves and young pods; assay type: biochemical; conditions: 1 mM NADPH, 100 μM cyanidin, 30° C., 30 min
Experimental: as §1, §2

anthocyanidin reductase [6] = experiment: Anthocyanidin reductase assay with desalted crude enzyme from barley testa; assay type: biochemical, Hordeum vulgare; conditions: 1 mM NADPH, 100 μM cyanidin, 30° C., 30 min
Experimental: as §1, §2

[7] = reactions containing leucoanthocyanidins

AtBAN (Arabidopsis thaliana BAN) protein, sequence (Q9SEV0 other isoform, or with tags, fused parts or gaps K55Q/I146L/V156I/E157D/T179K/K185E): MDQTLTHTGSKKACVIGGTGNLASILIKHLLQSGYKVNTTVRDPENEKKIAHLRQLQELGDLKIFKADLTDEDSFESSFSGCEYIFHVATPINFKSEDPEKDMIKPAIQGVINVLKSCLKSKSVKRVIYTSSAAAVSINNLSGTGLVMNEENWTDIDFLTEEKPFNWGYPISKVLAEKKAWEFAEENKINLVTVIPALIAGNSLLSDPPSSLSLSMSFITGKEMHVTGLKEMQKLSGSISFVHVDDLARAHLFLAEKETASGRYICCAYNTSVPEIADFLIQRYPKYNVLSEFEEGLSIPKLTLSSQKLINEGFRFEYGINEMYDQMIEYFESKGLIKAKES
T1 sequence (Q5FB34 whole entry R248Q): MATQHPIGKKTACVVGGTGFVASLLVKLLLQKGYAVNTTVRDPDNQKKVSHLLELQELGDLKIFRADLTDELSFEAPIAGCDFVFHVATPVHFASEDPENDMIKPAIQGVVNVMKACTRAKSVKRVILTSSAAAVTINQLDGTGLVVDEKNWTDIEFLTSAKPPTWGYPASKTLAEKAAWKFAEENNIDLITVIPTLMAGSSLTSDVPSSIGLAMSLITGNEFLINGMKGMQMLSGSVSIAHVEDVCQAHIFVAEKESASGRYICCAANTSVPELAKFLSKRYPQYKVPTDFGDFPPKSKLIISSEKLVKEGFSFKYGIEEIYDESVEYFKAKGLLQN

| Molecule | Products formed on incubation with AtBAN protein extract [1] | Products formed on incubation with MtBAN protein extract [2] | also measured |
| --- | --- | --- | --- |
| Oc1cc(O)c2c(c1)O[C@H](c1ccc(O)c(O)c1)[C@H](O)C2 [(−)epicatechin, (−)-epicatechin] | does not produce (2S,3R) configuration (−) catechin or (−)epicatechin | does not produce (2S,3R) configuration (−) catechin or (−)epicatechin |  |
| Oc1cc(O)c2cc(O)c(-c3cc(O)c(O)c(O)c3)[o+]c2c1 [delphinidin, delphinidin chloride] | delphinidin into gallocatechin | catalyzed the reduction of delphinidin into putative gallo-catechin and epi-gallocatechin |  |
| NC(=O)C1=CN([C@@H]2O[C@H](COP(=O)(O)OP(=O)(O)OC[C@H]3O[C@@H](n4cnc5c(N)ncnc54)[C@H](O)[C@@H]3O)[C@@H](O)[C@H]2O)C=CC1 [NADH] |  |  | Conversion with NADH relative to the level achieved with NADPH ([2]; NADH 2 mM final concentration substituted for NADPH): approximately 50% |
| Oc1ccc(-c2[o+]c3cc(O)cc(O)c3cc2O)cc1 [pelargonidin, Pelargonidin chloride] | pelargonidin into epi-alfzelechin | catalyzed the reduction of pelargonidin into a new compound eluting at 33.6 min |  |
| leucoanthocyanidins |  |  | LAR activity with recombinant AtBAN [1, 7]: no LAR activity was observed; LAR activity with recombinant MtBAN [2, 7]: no LAR activity was observed |
| Oc1cc(O)c2c(c1)O[C@H](c1ccc(O)c(O)c1)[C@@H](O)C2 [(+)-catechin] | does not produce (2S,3R) configuration (−) catechin or (−)epicatechin | does not produce (2S,3R) configuration (−) catechin or (−)epicatechin |  |
| Oc1cc(O)c2cc(O)c(-c3ccc(O)c(O)c3)[o+]c2c1.[Cl-] [cyanidin, cyanidin chloride] | catalyze the reduction of cyanidin to epicatechin | reducing cyanidin to the corresponding flavan-3-ols, catechin and epicatechin | Product formed by grape fruit skin enzyme (anthocyanidin reductase [3]): converted cyanidin into epicatechin; Product formed by Lotus corniculatus leaf enzyme (anthocyanidin reductase [4]): converted cyanidin into epicatechin; Product formed by Desmodium uncinatum flower, leaf and young pod enzyme (anthocyanidin reductase [5]): converted cyanidin into epicatechin; Product formed by barley testa enzyme (anthocyanidin reductase [6]): converted cyanidin into epicatechin |
